Measurements reported in the supplement of paper PMC10307832.

Legend:
Experiment in all cases: relative viability (nuclei count vs DMSO), 5 days (fraction); higher = more cells survive
[1] = test system: NCI-H1993
Method in brief: (§1)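 One day after seeding in 1536-well plates, lung cancer cell lines were dosed by pin tool. Dosing was either single-drug or a fixed anchor-drug dose plus five library-drug doses (not always all listed) in √10 steps. After 5 days, nuclei were stained in one fix-and-stain step and counted on 4× images, and relative viability is the nuclei count of treated wells over that of vehicle wells, given as the median of duplicate plates.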

[2] = test system: COR-L23
Method in brief: as §1

[3] = test system: NCI-H1793
Method in brief: as §1

[4] = test system: NCI-H1355
Method in brief: as §1

[5] = test system: NCI-H838
Method in brief: as §1

[6] = test system: UMC-11
Method in brief: as §1

[7] = test system: COR-L 105
Method in brief: as §1

[8] = test system: SK-MES-1
Method in brief: as §1

[9] = test system: NCI-H2009
Method in brief: as §1

[10] = test system: NCI-H358
Method in brief: as §1

[11] = test system: EKVX
Method in brief: as §1

[12] = test system: HOP-62
Method in brief: as §1

[13] = test system: NCI-H1734
Method in brief: as §1

[14] = test system: NCI-H647
Method in brief: as §1

[15] = test system: NCI-H1755
Method in brief: as §1

[16] = test system: NCI-H2342
Method in brief: as §1

[17] = test system: HARA
Method in brief: as §1

[18] = test system: PC-14
Method in brief: as §1

[19] = test system: NCI-H2228
Method in brief: as §1

[20] = test system: NCI-H2347
Method in brief: as §1

[21] = test system: NCI-H1395
Method in brief: as §1

[22] = test system: HCC-15
Method in brief: as §1

[23] = test system: NCI-H2170
Method in brief: as §1

`O=C(O)c1ccc(-c2c[nH]c3ncc(-c4ccccc4)cc23)cc1C1CCCC1` + COc1cccc2cc(-c3nc([C@H]4CC[C@H](C(=O)O)CC4)n4ncnc(N)c34)[nH]c12 [OSI-027] (partner 0.5 µM) showed a relative viability ([1]; first compound 0.04 µM) of 0.521, a relative viability ([1]; first compound 0.1265 µM) of 0.55 and a relative viability ([1]; first compound 0.4 µM) of 0.568. It also gave a relative viability ([1]; first compound 1.265 µM) of 0.586, a relative viability ([2]; first compound 0.04 µM) of 0.763 and a relative viability ([2]; first compound 0.1265 µM) of 0.876. For the same compound, the relative viability ([2]; first compound 0.4 µM) was 0.701, the relative viability ([2]; first compound 1.265 µM) was 0.511 and the relative viability ([3]; first compound 0.04 µM) was 0.312. For the same compound, the relative viability ([3]; first compound 0.1265 µM) was 0.362, the relative viability ([3]; first compound 0.4 µM) was 0.288 and the relative viability ([3]; first compound 1.265 µM) was 0.283. For the same compound, the relative viability ([4]; first compound 0.04 µM) was 0.43, the relative viability ([4]; first compound 0.1265 µM) was 0.47 and the relative viability ([4]; first compound 0.4 µM) was 0.371. The relative viability ([4]; first compound 1.265 µM) was 0.379, the relative viability ([5]; first compound 0.04 µM) was 0.322 and the relative viability ([5]; first compound 0.1265 µM) was 0.452. For the same compound, the relative viability ([5]; first compound 0.4 µM) was 0.4, the relative viability ([5]; first compound 1.265 µM) was 0.358 and the relative viability ([6]; first compound 0.04 µM) was 0.482. For the same compound, the relative viability ([6]; first compound 0.1265 µM) was 0.547, the relative viability ([6]; first compound 0.4 µM) was 0.46 and the relative viability ([6]; first compound 1.265 µM) was 0.375. For the same compound, the relative viability ([7]; first compound 0.04 µM) was 0.635, the relative viability ([7]; first compound 0.1265 µM) was 0.673 and the relative viability ([7]; first compound 0.4 µM) was 0.757. The relative viability ([7]; first compound 1.265 µM) was 0.838, the relative viability ([8]; first compound 0.04 µM) was 0.647 and the relative viability ([8]; first compound 0.1265 µM) was 0.648. It also gave a relative viability ([8]; first compound 0.4 µM) of 0.622, a relative viability ([8]; first compound 1.265 µM) of 0.41 and a relative viability ([9]; first compound 0.04 µM) of 0.69. The relative viability ([9]; first compound 0.1265 µM) was 0.687, the relative viability ([9]; first compound 0.4 µM) was 0.648 and the relative viability ([9]; first compound 1.265 µM) was 0.549. For the same compound, the relative viability ([10]; first compound 0.04 µM) was 0.807, the relative viability ([10]; first compound 0.1265 µM) was 0.933 and the relative viability ([10]; first compound 0.4 µM) was 0.727. It also gave a relative viability ([10]; first compound 1.265 µM) of 0.359, a relative viability ([11]; first compound 0.04 µM) of 0.736 and a relative viability ([11]; first compound 0.1265 µM) of 0.828. The relative viability ([11]; first compound 0.4 µM) was 0.727, the relative viability ([11]; first compound 1.265 µM) was 0.587 and the relative viability ([12]; first compound 0.04 µM) was 0.899. It also gave a relative viability ([12]; first compound 0.1265 µM) of 0.859, a relative viability ([12]; first compound 0.4 µM) of 0.707 and a relative viability ([12]; first compound 1.265 µM) of 0.805. For the same compound, the relative viability ([13]; first compound 0.04 µM) was 0.621, the relative viability ([13]; first compound 0.1265 µM) was 0.701 and the relative viability ([13]; first compound 0.4 µM) was 0.549. For the same compound, the relative viability ([13]; first compound 1.265 µM) was 0.512, the relative viability ([14]; first compound 0.04 µM) was 0.701 and the relative viability ([14]; first compound 0.1265 µM) was 0.716. The relative viability ([14]; first compound 0.4 µM) was 0.669, the relative viability ([14]; first compound 1.265 µM) was 0.574 and the relative viability ([15]; first compound 0.04 µM) was 0.748. For the same compound, the relative viability ([15]; first compound 0.1265 µM) was 0.814, the relative viability ([15]; first compound 0.4 µM) was 0.724 and the relative viability ([15]; first compound 1.265 µM) was 0.673. It also gave a relative viability ([16]; first compound 0.04 µM) of 0.489, a relative viability ([16]; first compound 0.1265 µM) of 0.744 and a relative viability ([16]; first compound 0.4 µM) of 0.748. The relative viability ([16]; first compound 1.265 µM) was 0.646, the relative viability ([17]; first compound 0.04 µM) was 0.463 and the relative viability ([17]; first compound 0.1265 µM) was 0.733. The relative viability ([17]; first compound 0.4 µM) was 0.55, the relative viability ([17]; first compound 1.265 µM) was 0.591 and the relative viability ([18]; first compound 0.04 µM) was 0.759. For the same compound, the relative viability ([18]; first compound 0.1265 µM) was 0.86, the relative viability ([18]; first compound 0.4 µM) was 0.826 and the relative viability ([18]; first compound 1.265 µM) was 0.877. It also gave a relative viability ([19]; first compound 0.04 µM) of 0.557, a relative viability ([19]; first compound 0.1265 µM) of 0.568 and a relative viability ([19]; first compound 0.4 µM) of 0.446. For the same compound, the relative viability ([19]; first compound 1.265 µM) was 0.355, the relative viability ([20]; first compound 0.04 µM) was 0.451 and the relative viability ([20]; first compound 0.1265 µM) was 0.392. It also gave a relative viability ([20]; first compound 0.4 µM) of 0.425, a relative viability ([20]; first compound 1.265 µM) of 0.367 and a relative viability ([21]; first compound 0.04 µM) of 0.627. For the same compound, the relative viability ([21]; first compound 0.1265 µM) was 0.773, the relative viability ([21]; first compound 0.4 µM) was 0.516 and the relative viability ([21]; first compound 1.265 µM) was 0.537. It also gave a relative viability ([22]; first compound 0.04 µM) of 0.807, a relative viability ([22]; first compound 0.1265 µM) of 0.813 and a relative viability ([22]; first compound 0.4 µM) of 0.633. For the same compound, the relative viability ([22]; first compound 1.265 µM) was 0.399, the relative viability ([23]; first compound 0.04 µM) was 0.734 and the relative viability ([23]; first compound 0.1265 µM) was 0.685. The relative viability ([23]; first compound 0.4 µM) was 0.703 and the relative viability ([23]; first compound 1.265 µM) was 0.676.
